Consider two molecules from article PMC11224556, “Next-generation of BBQ analogues that selectively target breast cancer” (Frontiers in Chemistry, 2024).

The subject of data set [1] is MIA (pancreas) cells. Also noted: method as in Gilbert et al., 2020. The settings on record: MTT, 72 h, ref Gilbert et al., 2020; cited from earlier work.
Data set [2] relates to MDA-MB-231 breast cancer cells. Also on record: method as in Gilbert et al., 2020. The settings on record: MDA-MB-231, Breast (TN); MTT, 72 h; ref Gilbert et al., 2020; cited from earlier work.
In data set [3] the test system is BT474 breast cancer cells. Also noted: method as in Gilbert et al., 2020. The settings on record: BT474, Breast (ER/PR/HER2); MTT, 72 h; ref Gilbert et al., 2020; cited from earlier work.
For data set [4], the system named is HT29 (colorectal) cells. Also on record: method as in Gilbert et al., 2020. The settings on record: HT29, Colon; MTT, 72 h; ref Gilbert et al., 2020; cited from earlier work.
Data set [5] has as its system A431 (vulva/skin, ER+) cells. Also on record: method as in Gilbert et al., 2020. The settings on record: MTT, 72 h, ref Gilbert et al., 2020; cited from earlier work.
In data set [6] the test system is MDA-MB-468 breast cancer cells. Briefly: MTT growth inhibition with co-administered CYP1 (αNF) or SULT1A1 (quercetin) inhibitor. Type of data set: cell-based, human. The settings on record: for fold reduction of growth inhibition (GI50 shift): MDA-MB-468. The procedure:
This analysis confirms that both CYP1 and SULT1A1, activity is needed to induce the growth inhibitory effect of the BBQ analogue.
FIGURE 5 CYP1 and SULT1A1 inhibition ameliorates the effect of 5. Growth inhibition (72 h, MTT assay) of 5 in the presence of the (A) CYP1 family inhibitor, α-naphthoflavone (αNF, 10 μM) and (B) SULT1A1 inhibitor, quercetin (5 μM), in MDA-MB-468 breast cancer cells. […] The effect of αNF and quercetin at the single concentration of 10µM and 5 µM respectively is shown in red as a single value.
Cells in logarithmic growth were transferred to 96-well plates. Cytotoxicity was determined by plating cells in duplicate in 100 μL medium at a density of 2,500–4,000 cells/well in 96 well plates. On day 0, (24 h after plating) when the cells were in logarithmic growth 100 μL medium with or without the test agent was added to each well. After 72 h drug exposure growth inhibitory effects were evaluated using the MTT (3-[4,5-dimethylthiazol-2-yl]-2,5-diphenyltetrazolium bromide) assay with absorbance read at 540 nm. An eight-point dose response curve was produced, using MS Excel software. From these dose-response curves, the GI50 value was calculated, representing the drug concentration at which cell growth is 50% inhibited based on the difference between the optical density values on day 0 and those at the end of drug exposure ([Bradshaw et al., 2008]; [Zhang et al., 2009]). Each data point was conducted in duplicate and the mean ± S.E.M. calculated from four to five replicates (n = 4 or 5), which were performed on separate occasions and separate cell line passages. Where shown, significant test results were determined using T-test analysis at p < 0.01 and p < 0.05 with a two tail distribution.
Supp Figure 1. CYP1 and SULT1A1 inhibition ameliorates the effect of 3 and 5. Growth inhibition (72 h, MTT assay) of 3 and 5 (0.1 µM) in the presence of the CYP1 family inhibitor, α-naphthoflavone (αNF, 10 µM) and SULT1A1 inhibitor, quercetin (qu, 5 µM) in (A) MDA-MB-468 breast cancer cells and (B) MCF10A normal breast cells. […]

On to `Nc1ccccc1N1C(=O)c2cccc3cccc(c23)C1=O` [Compound 2, 2-(2-aminophenyl)-1H-benzo[de]isoquinoline-1,3(2H)-dione], for which the GI50 in data set [1] was > 50000 nM; in data set [2] it was 35000 ± 3000 nM; in data set [3] it was 430 ± 70 nM; in data set [4], 32000 ± 2000 nM; in data set [5], 250 ± 120 nM.
Turning to `O=c1c2cccc3cccc(c32)c2nc3ccccc3n12` [Compound 5, 7H-Benzo[de]benzo[4,5]imidazo[2,1-a]isoquinolin-7-one], in data set [6] (Homo sapiens, compound alone (no inhibitor), MDA-MB-468, MTT, 72 h), the GI50 amounted to 5 nM. In addition, the “fold reduction of growth inhibition (GI50 shift)” value in data set [6] (with quercetin 5 μM vs alone) amounted to 4.6 fold; in data set [6] (with α-naphthoflavone 10 μM vs alone), 36 fold.

As a reminder, the GI50 is the concentration at which growth is held to half of that of the control.
